{
  "source": "paper PMC7915588",
  "about": "“Polyphyllin D Shows Anticancer Effect through a Selective Inhibition of Src Homology Region 2-Containing Protein Tyrosine Phosphatase-2 (SHP2)” (Molecules, 2021)",
  "key": {"PTPN3 (PTPH1)": {"target": "T1, PTPN3 (PTPH1) (Homo sapiens, UniProt P26045)", "T1 construct": "403-913", "T1 sequence (P26045 1-913)": "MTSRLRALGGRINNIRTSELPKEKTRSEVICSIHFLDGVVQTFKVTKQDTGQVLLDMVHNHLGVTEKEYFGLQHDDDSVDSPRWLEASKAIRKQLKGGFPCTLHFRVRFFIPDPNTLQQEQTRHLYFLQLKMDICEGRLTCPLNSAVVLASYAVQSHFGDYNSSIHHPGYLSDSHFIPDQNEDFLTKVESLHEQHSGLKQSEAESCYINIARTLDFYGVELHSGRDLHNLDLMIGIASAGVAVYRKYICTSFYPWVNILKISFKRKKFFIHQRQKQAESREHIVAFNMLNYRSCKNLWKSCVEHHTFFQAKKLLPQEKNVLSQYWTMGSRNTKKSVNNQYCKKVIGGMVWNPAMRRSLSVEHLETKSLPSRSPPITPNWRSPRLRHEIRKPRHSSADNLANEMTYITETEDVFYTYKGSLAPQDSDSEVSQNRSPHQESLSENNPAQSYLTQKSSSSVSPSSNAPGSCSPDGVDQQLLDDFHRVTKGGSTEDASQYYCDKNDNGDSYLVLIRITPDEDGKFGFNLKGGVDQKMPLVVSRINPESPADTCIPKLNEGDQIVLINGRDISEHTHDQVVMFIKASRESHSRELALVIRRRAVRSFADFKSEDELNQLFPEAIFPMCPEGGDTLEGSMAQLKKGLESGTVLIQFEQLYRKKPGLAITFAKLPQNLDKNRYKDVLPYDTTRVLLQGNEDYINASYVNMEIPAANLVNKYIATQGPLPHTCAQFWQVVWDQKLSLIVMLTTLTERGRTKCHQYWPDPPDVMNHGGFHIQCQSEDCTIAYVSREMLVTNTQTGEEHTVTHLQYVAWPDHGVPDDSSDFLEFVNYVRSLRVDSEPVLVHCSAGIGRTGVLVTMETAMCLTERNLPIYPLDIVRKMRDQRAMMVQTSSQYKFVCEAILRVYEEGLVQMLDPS", "experiment": "biochemical", "design": "Fluorogenic phosphatase assay, DiFMUP hydrolysis by recombinant PTPs, initial velocity, Ex/Em 355/460 nm", "conditions": "read-out: Inhibition by 20 µM polyphyllin D (%)", "method": "(§1) Enzymatic reactions were initiated by the addition of SHP2 (final concentration of 10 nM) to a solution of each of the 658 phytochemical compounds (final concentration of 20 µM) in reaction buffer (20 mM bis-tris pH 6.0, 150 mM NaCl, 2.5 mM dithiothreitol, and 0.01% Triton X-100) containing DiFMUP (final concentration of 140 µM). Changes in the fluorescence intensities were measured continuously for 10 min at Ex/Em = 355/460 nm on a VictorTM X4 multilabel plate reader. Enzyme inhibition was estimated by comparing the reaction velocity in the presence of each compound with that in the absence of any compound. Inhibition of the other PTPs was measured in the same way. Next, we established a screening strategy using a DiFMUP substrate to identify a natural product that inhibits SHP2 activity. Initially, we screened 658 compounds at 20 µM using a 96-well plate system (Figure 2A). […] The selected compounds were tested at 20 µM for SHP2 inhibition, and 14 additional non-receptor-type PTPs (PTP1B, TCPTP, PTPH1, STEP, SHP1, HePTP, PTP-MEG2, PTP-PEST, PTP-BAS, PTP36, PTP-HSCF, PTPD1, LYP, and HD-PTP) were used to investigate the inhibition selectivity. The results were visualized using a heat map analysis by GraphPad Prism (Figure 2B and Table S2 in Supplementary Materials). To identify new SHP2 anticancer natural products, we first performed cloning to express SHP2 protein and then purified it. PTPN11 (Gene ID: 5781) encoding human SHP2 (amino acids sequences 1 to 526) with several extra amino acids were cloned into the MBP-pET 28a (+) vector, which was successfully used to overexpress PTPs with enhanced solubility in an Escherichia coli expression system. Information on amino acids for 15 non-receptor-type PTPs including SHP2 is summarized in Table S3 in the Supplementary Materials. SHP2 was overexpressed in RosettaTM (DE3) and purified using a metal affinity resin (Figure S1 in Supplementary Materials). […] The kcat, KM, and kcat/KM values were determined to be 270 min^−1, 70 μM, and 3.9 μM^−1min^−1, respectively, using the Lineweaver–Burk plot analysis (Table S1 in Supplementary Materials)."}, "PTPN7 (HePTP)": {"target": "T2, PTPN7 (HePTP) (Homo sapiens, UniProt P35236)", "T2 construct": "1-360", "T2 sequence (P35236 1-360)": "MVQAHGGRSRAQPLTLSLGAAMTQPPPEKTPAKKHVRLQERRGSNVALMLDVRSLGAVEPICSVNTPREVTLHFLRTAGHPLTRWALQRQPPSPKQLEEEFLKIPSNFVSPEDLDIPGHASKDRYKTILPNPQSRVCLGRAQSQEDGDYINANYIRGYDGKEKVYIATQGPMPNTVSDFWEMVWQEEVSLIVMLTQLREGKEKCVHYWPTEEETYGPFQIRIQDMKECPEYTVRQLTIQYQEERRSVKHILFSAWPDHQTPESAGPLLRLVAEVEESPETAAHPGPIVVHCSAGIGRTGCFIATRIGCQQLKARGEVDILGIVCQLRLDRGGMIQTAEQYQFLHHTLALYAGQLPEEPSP", "experiment": "biochemical", "design": "Fluorogenic phosphatase assay, DiFMUP hydrolysis by recombinant PTPs, initial velocity, Ex/Em 355/460 nm", "conditions": "read-out: Inhibition by 20 µM polyphyllin D (%)", "method": "as §1"}},
  "data": [
    {"compound": "C[C@@H]1CC[C@@]2(OC1)O[C@H]1C[C@H]3[C@@H]4CC=C5C[C@@H](O[C@@H]6O[C@H](CO)[C@@H](O[C@@H]7O[C@@H](CO)[C@H](O)[C@H]7O)[C@H](O)[C@H]6O[C@@H]6O[C@@H](C)[C@H](O)[C@@H](O)[C@H]6O)CC[C@]5(C)[C@H]4CC[C@]3(C)[C@H]1[C@@H]2C", "note": "[polyphyllin D]", "values": [
      {"measurement": "inhibition at 20 µM", "setting": "PTPN3 (PTPH1)", "result": 0, "unit": "%"},
      {"measurement": "inhibition at 20 µM", "setting": "PTPN7 (HePTP)", "result": 9.2, "unit": "%"}
    ]}
  ]
}
